In ChEMBL document CHEMBL1201862, “PubChem BioAssay data set” (2004):
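Tested at 5 concentrations; 48 h exposure; 96-well plates; endpoints linearly interpolated, else capped at highest concentration. Here, GI50 denotes the concentration required for 50% inhibition of growth.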 Active and inactive are the calls of the source. Rule as the data show it: active = GI50 up to about 1.1 µM and inactive = higher.

Assays:
Experiment in all cases: inhibition of tumour cell growth, NCI panel, 48 h
OVCAR-5 = system: OVCAR-5
TK-10 = system: TK-10
NCI-H522 = system: NCI-H522
SK-OV-3 = system: SK-OV-3
SNB-19 = system: SNB-19
SK-MEL-28 = system: SK-MEL-28
HCT-116 = system: HCT-116
SF-295 = system: SF-295
HCC 2998 = system: HCC 2998
786-0 = system: 786-0
SW-620 = system: SW-620
CCRF-CEM = system: CCRF-CEM
DU-145 = system: DU-145
K562 = system: K562
SNB-75 = system: SNB-75
U-251 = system: U-251
UO-31 = system: UO-31
BT-549 = system: BT-549
IGROV-1 = system: IGROV-1
SF-268 = system: SF-268
HT-29 = system: HT-29
HCT-15 = system: HCT-15
HOP-62 = system: HOP-62
NCI-H460 = system: NCI-H460
OVCAR-4 = system: OVCAR-4
PC-3 = system: PC-3
SR = system: SR
NCI/ADR-RES = system: NCI/ADR-RES
M14 = system: M14
CAKI-1 = system: CAKI-1
T47D = system: T47D
ACHN = system: ACHN
MDA-N = system: MDA-N
NCI-H23 = system: NCI-H23
LOX IMVI = system: LOX IMVI
UACC-257 = system: UACC-257
KM12 = system: KM12
UACC-62 = system: UACC-62
NCI-H226 = system: NCI-H226
EKVX = system: EKVX
MOLT-4 = system: MOLT-4
COLO 205 = system: COLO 205
MCF7 = system: MCF7
MDA-MB-231 = system: MDA-MB-231
A549 = system: A549
SK-MEL-5 = system: SK-MEL-5
RXF 393 = system: RXF 393
MDA-MB-435 = system: MDA-MB-435
SN12C = system: SN12C

## O=C(OCC(Cl)(Cl)Cl)O[C@@H]1CCCC1(c1ccccc1)c1ccccc1
OVCAR-5
  GI50: > 100 µM (inactive)
TK-10
  GI50: > 100 µM (inactive)
NCI-H522
  GI50: 38.7 µM (inactive)
SK-OV-3
  GI50: > 100 µM (inactive)
SNB-19
  GI50: > 100 µM (inactive)
SK-MEL-28
  GI50: 78.7 µM (inactive)
HCT-116
  GI50: 44.8 µM (inactive)
SF-295
  GI50: > 100 µM (inactive)
HCC 2998
  GI50: 45.4 µM (inactive)
786-0
  GI50: > 100 µM (inactive)
SW-620
  GI50: > 100 µM (inactive)
CCRF-CEM
  GI50: > 100 µM (inactive)
DU-145
  GI50: > 100 µM (inactive)
K562
  GI50: 30.8 µM (inactive)
SNB-75
  GI50: > 100 µM (inactive)
U-251
  GI50: > 100 µM (inactive)
UO-31
  GI50: > 100 µM (inactive)
BT-549
  GI50: > 100 µM (inactive)
IGROV-1
  GI50: > 100 µM (inactive)
SF-268
  GI50: > 100 µM (inactive)
HT-29
  GI50: > 100 µM (inactive)
HCT-15
  GI50: 77.4 µM
HOP-62
  GI50: > 100 µM (inactive)
NCI-H460
  GI50: 71 µM (inactive)
OVCAR-4
  GI50: > 100 µM (inactive)
PC-3
  GI50: 37.5 µM (inactive)
SR
  GI50: 12.6 µM (inactive)
NCI/ADR-RES
  GI50: > 100 µM (inactive)
M14
  GI50: > 100 µM (inactive)
CAKI-1
  GI50: > 100 µM (inactive)
T47D
  GI50: 72.1 µM (inactive)
ACHN
  GI50: > 100 µM (inactive)
MDA-N
  GI50: 72.4 µM (inactive)
NCI-H23
  GI50: 68.1 µM (inactive)
LOX IMVI
  GI50: 76.7 µM (inactive)
UACC-257
  GI50: 67.8 µM (inactive)
KM12
  GI50: 45.3 µM (inactive)
UACC-62
  GI50: > 100 µM (inactive)
NCI-H226
  GI50: 37.5 µM (inactive)
EKVX
  GI50: > 100 µM (inactive)
MOLT-4
  GI50: 6.81 µM (inactive)
COLO 205
  GI50: > 100 µM (inactive)
MCF7
  GI50: 55.1 µM (inactive)
MDA-MB-231
  GI50: > 100 µM (inactive)
A549
  GI50: 65.3 µM (inactive)
SK-MEL-5
  GI50: 35.9 µM (inactive)
RXF 393
  GI50: 63.2 µM (inactive)
MDA-MB-435
  GI50: 24.2 µM (inactive)
SN12C
  GI50: > 100 µM (inactive)
